Tests used:
Pseudomonas syringae = assay: Microplate based screening of bioactivity against Pseudomonas syringae; assay type: cell-based
Description: • 1) Grow Pseudomonas on LBA plates at 28° C. for 2 days to get a single colony • 2) Transfer a single colony using a sterile toothpick into a 50 ml sterile tube containing 5 ml LB and grow for 24 at 28° C. and 150 RPM • 3) Chill the tube in the fridge for 1 h • 4) Add 7.5 ml of fridge cold, sterile, glycerol solution to the tube—to get 60% glycerol solution • 5) Mix well but gently to get perfect mixing—use vortex at 1000 RPM • 6) Aliquot 100 ul of bacteria suspension in 60% glycerol into 1.5 ml tubes—each aliquot should be enough for screening of 10 microplates • 7) Store the bacteria suspension in 60% glycerol at −20° C.
• 1) Take 1.5 ml tube with 100 ul frozen Pseudomonas suspension from the freezer and thaw it on ice • 2) Prepare in the hood 50 ml tubes with 40 ml fridge cold LB • 3) Mix 40 ul of bacteria suspension with 40 ml fridge cold LB in a 50 ml tube. This amount is enough for activity screening of 10 microplates • 4) Use this suspension for bioactivity screening experiments.
The bioactivity values are in % and reflect the potential of eradicating the target pests. Rules for Bioactivity Relative Value Calculation (Expressed in % from Maximal Value) • a. […] Pseudomonas syringae—activity grade (1/2/3)×repeats #X days of activity/168 (maximal value 3×4×14=168)*100

Pythium aphanidermatum [1] = assay: In-vivo validation under greenhouse conditions in cucumber seedlings infected with Pythium aphanidermatum; settings: preventative treatment 24 h before inoculation, 7 d after inoculation, best of 9 experiments
Description: (§1) Formulation 3—Three types of stock solutions were used for final CART formulation preparation at 400 ppm: • (A) 0.1% CART solution in water+base (CART dissolved in water to 0.1% and sonicated for 10 mins at room temperature, then Na2CO3 25% stock was added to volume of 4% of the solution. The solution should be clear orange and at pH=8.0. The solution was sonicated for 20 minutes); • (B) 0.4% Xanthan Gum in water (w/w); • (C) 0.6% Silwet in water (w/w). The final formulation which was applied to cucumber seedlings composed of: 40% of stock solution A, 10% of stock solutions B and C, and 40% of water. The final formulation 3 was either applied as 400 ppm of diluted to the required concentrations and applied to cucumber seedlings. Formulation 4—Three types of stock solutions were used for final CART formulation preparation at 400 ppm: • (A) 10% CART in DMSO (CART dissolved in DMSO to 10% (w/w) and sonicated for 5 mins at room temperature); • (B) 0.4% Xanthan Gum in water (w/w); • (C) 0.6% Silwet in water (w/w). The final formulation which was applied to cucumber seedlings composed of: […], 10% of stock solutions B and C, and 76% of water. The final formulation 4 was either applied as 400 ppm of diluted to the required concentrations and applied to cucumber seedlings. […]
(§2) To evaluate the effect of a Cardol triene in infected plants compared to control plants (infected but not treated) the data was analyzed by Student's t-test and the p-value is calculated. […]
• General description: Pythium aphanidermatum disease severity development was evaluated following preventative treatment by Cardol triene (CART) […]

Rhizoctonia solani [2] = assay: Microplate based assay of bioactivity against Rhizoctonia solani; assay type: cell-based
Description: • 1) Screen plate at 3 more dates: 3 d, 7 d, 14 d and 21 d following the assay start • 2) Calculate the difference of absorbance between each screen and the read at zero time • 3) Calculate the percentage of growth inhibition of each well at each time point. […]

Pythium aphanidermatum [3] = assay: Microplate based screening of bioactivity against Pythium aphanidermatum; assay type: cell-based
Description: The following Materials, methods and equipment were used: • Materials: SCH, PDBC, DMSO • Equipment: Plate reader, Centrifuge, Shaker, Incubator
• Grow Pythium aphanidermatum on SCH in 90 mm petri plates to get sporulating hyphae. […]
• 1) Read out the plate at 3 more dates: 3 d, 7 d, 14 d and 21 d following the assay start • 2) Calculate the difference of absorbance between each readout and the readout at zero time • 3) Calculate the percentage of growth inhibition of each well at each time point. […]

Rhizoctonia solani [4] = assay: In-vivo validation under greenhouse conditions in cucumber seedlings infected with Rhizoctonia solani; settings: preventative treatment 24 h before inoculation, 7 d after inoculation, best of 9 experiments
Description: as §1, §2
• General description: Rhizoctonia disease severity were evaluated following preventative treatment with CART (Cardol triene). […]

[5] = 10 ul of 250 ppm solution + 40 ul inoculum, activity grade x repeats x days of activity/252*100, read to 21 d

C=CC/C=C\C/C=C\CCCCCCCc1cc(O)cc(O)c1 [Cardol triene, 5-8Z,11Z,14-pentadecatrien-1-yl-1,3-benzenediol]
Relative Activity value (%) (Pseudomonas syringae; 10 ul of 250 ppm solution + 40 ul inoculum, activity grade x repeats x days of activity/168*100): 50%
pesticidal activity in words (Pseudomonas syringae; summary statement): effective pesticides
efficacy at preventing the plants death (Pythium aphanidermatum [1]; 100 ppm): up to 97.6%
efficacy at preventing the plants death (Pythium aphanidermatum [1]; 200 ppm): up to 100%
efficacy at preventing the plants death (Pythium aphanidermatum [1]; 400 ppm): up to 71.4%
Relative Activity value (%) (Rhizoctonia solani [2]; [5]): 60%
pesticidal activity in words (Rhizoctonia solani [2]; summary statement): effective pesticides
Relative Activity value (%) (Pythium aphanidermatum [3]; [5]): 100%
pesticidal activity in words (Pythium aphanidermatum [3]; summary statement): effective pesticides
efficacy at preventing the plants death (Rhizoctonia solani [4]; 100 ppm): up to 81.2%
efficacy at preventing the plants death (Rhizoctonia solani [4]; 200 ppm): up to 100%
efficacy at preventing the plants death (Rhizoctonia solani [4]; 400 ppm): up to 98.4%

From US20240057592A1, “PESTICIDE COMPOSITIONS OF PHENOL AND RESORCINOL DIENES AND TRIENES” (METABOLIC INSIGHTS LTD., priority 2020, published 2024)
